Molecules are shown by their SMILES. Counter-ions that a name gives are not always drawn.

The assay has as its system cultivable periodontal microorganisms. Nature of the assay: Concentration of tetracycline necessary to suppress growth of all cultivable periodontal microorganisms (agar plates). The format is cell-based. Particulars: anaerobic, 35° C., 5 to 7 days. The method, then: Samples containing periodontal organisms taken from deep periodontal pockets of 5 patients were transferred to 10 ml of pre-reduced Ringer's solution, dispersed by 10 seconds of sonic oscillation at an amplitude of 10 microns, and dilutions of 1:20, 1:100, and 1:1000 were prepared. One-tenth milliliter of each dilution was streaked on trypticase soy agar containing 5% sheep blood and 0.3 μg/ml menadione in petri dishes. Identical plates were prepared containing 1, 8, 32, and 64 micrograms/milliliter of tetracycline hydrochloride. Inoculated plates were incubated at 35° C. in an anaerobic atmosphere at 80% nitrogen, 10% hydrogen, and 10% carbon dioxide for 5 to 7 days. Plates from dilutions providing separated colony growth were selected for counting to determine the total colony forming units on primary medium and each associated tetracycline-containing medium. Percentages of organisms grown at each concentration were computed. Values of 21.2%, 3.6%, 0.08%, and 0% were found on plates containing 1, 8, 32, and 64 micrograms/milliliter tetracycline respectively. These observations indicate that no cultivable periodontal organisms grow at tetracycline concentrations of 64 micrograms/milliliter, thereby establishing the primary design parameter for a local drug delivery system for periodontal therapy which would suppress growth of all cultivable periodontal microorganisms with continuous exposure of the organisms to tetracycline.

In the case of `CN(C)C1C(=O)C(C(N)=O)=C(O)C2(O)C(=O)C3=C(O)c4c(O)cccc4C(C)(O)C3CC12` (centres unmarked) [tetracycline, tetracycline hydrochloride], the activity at 1 µg/mL (168 h, 1 microgram/milliliter tetracycline, % of colony forming units on primary medium, read-out: Percentage of organisms grown) came to 21.2%. Moreover, the activity at 8 µg/mL (168 h, 8 micrograms/milliliter tetracycline, % of colony forming units on primary medium, read-out: Percentage of organisms grown) is 3.6%. For the same compound, for the setting “168 h, 32 micrograms/milliliter tetracycline, % of colony forming units on primary medium, read-out: Percentage of organisms grown”, the activity at 32 µg/mL came out at 0.08%. Further, the activity at 64 µg/mL (168 h, 64 micrograms/milliliter tetracycline, % of colony forming units on primary medium, read-out: Percentage of organisms grown) was determined as 0%. Besides, for the setting “tested 1, 8, 32, 64 micrograms/milliliter, read-out: Concentration at which no cultivable periodontal organisms grow”, the MIC amounted to 64 µg/mL.

These data come from patent US4892736A, “Intra-pocket drug delivery devices for treatment of periodontal diseases” (The Forsyth Dental Infirmary for Children, priority 1988, dated 1990).
